Assay results: US20100267561A1, “HERBICIDAL PYRIDAZINONE DERIVATIVES” (priority 2007, published 2010)
Like-named read-outs stand apart in the source and are kept apart here.

Experiments:
Assay in all cases: Test B pre-/postemergence plant response
Type in all cases: in vivo
[1] = system: common ragweed (Ambrosia elation); conditions: for pest or weed control at 31 g/ha / pest or weed control at 62 g/ha: Ambrosia, read-out: Plant response rating, Ragweed; for pest or weed control at 31 g/ha: 31 g ai/ha; for pest or weed control at 62 g/ha: 62 g ai/ha, 100 complete control
In short: (§1)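 Visual scoring from 0 (no effect) to 100 (complete control) against untreated controls was done 13 to 15 days after greenhouse treatment. Chemicals were formulated in a surfactant-containing non-phytotoxic solvent and applied to soil preemergence or to 1- to 4-leaf (2-18 cm) plants postemergence.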

[2] = system: downy bromegrass (Bromus tectorum); conditions: for pest or weed control at 31 g/ha: 31 g ai/ha; for pest or weed control at 62 g/ha: 62 g ai/ha, 100 complete control
In short: as §1

[3] = system: morningglory (Ipomoea coccinea); conditions: for pest or weed control at 31 g/ha / pest or weed control at 62 g/ha: Ipomoea, read-out: Plant response rating, Morningglory; for pest or weed control at 31 g/ha: 31 g ai/ha; for pest or weed control at 62 g/ha: 62 g ai/ha, 100 complete control
In short: as §1

[4] = system: green foxtail (Setaria viridis); conditions: for pest or weed control at 31 g/ha: 31 g ai/ha; for pest or weed control at 62 g/ha: 62 g ai/ha, 100 complete control
In short: as §1

corn (Zea mays) = conditions: for Corn plant response rating (crop injury, 0 = no effect, 100 = complete kill) at 31 g/ha: 31 g ai/ha; for Corn plant response rating (crop injury, 0 = no effect, 100 = complete kill) at 62 g/ha: 62 g ai/ha, 100 complete control
In short: as §1

[5] = system: giant foxtail (Setaria faberii); conditions: for pest or weed control at 31 g/ha: 31 g ai/ha; for pest or weed control at 62 g/ha: 62 g ai/ha, 100 complete control
In short: as §1

[6] = system: surinam grass (Brachiaria decumbens); conditions: for pest or weed control at 31 g/ha / pest or weed control at 62 g/ha: Urochloa decumbens, read-out: Plant response rating, Surinam Grass; for pest or weed control at 31 g/ha: 31 g ai/ha; for pest or weed control at 62 g/ha: 62 g ai/ha, 100 complete control
In short: as §1

[7] = post-emergence, Postemergence, scale 0 to 100
[8] = post-emergence, Postemergence, scale 0 to 100, 0 no effect
[9] = pre-emergence, Preemergence, scale 0 to 100 (0 no effect, 100 complete control)
[10] = pre-emergence, Preemergence, 0 to 100 scale, 0 no effect
[11] = Preemergence, 8 g ai/ha, scale 0 to 100 (0 no effect, 100 complete control)
[12] = Preemergence, 16 g ai/ha, scale 0 to 100
[13] = 8 g ai/ha, postemergence, 0-100 scale
[14] = 16 g ai/ha, postemergence, 0-100 scale

Cc1nn(C)c(=O)c(-c2nc(-c3ccc(Cl)cc3)sc2C)c1O [Compound 79, 4-[2-(4-chlorophenyl)-5-methyl-4-thiazolyl]-5-hydroxy-2,6-dimethyl-3(2H)-pyridazinone]
pest or weed control at 31 g/ha [1, 7]: 0% | pest or weed control at 62 g/ha [1, 8]: 0% | pest or weed control at 31 g/ha [1, 9]: 0% | pest or weed control at 62 g/ha [1, 10]: 0% | Ragweed plant response rating [1, 11]: 0 | Ragweed plant response rating [1, 12]: 0 | Bromegrass, Downy plant response rating [2, 13]: 0 | pest or weed control at 16 g/ha ([2]; Bromus tectorum, post-emergence, Postemergence, 16 g ai/ha, scale 0 to 100, read-out: Plant response rating, Bromegrass, Downy): 0% | pest or weed control at 31 g/ha ([2]; Bromus tectorum, post-emergence, Postemergence, scale 0 to 100, read-out: Plant response rating, Bromegrass, Downy): 30% | pest or weed control at 62 g/ha ([2]; Bromus tectorum, post-emergence, Postemergence, scale 0 to 100, 0 no effect, read-out: Plant response rating, Bromegrass, Downy): 50% | pest or weed control at 31 g/ha ([2]; Bromus tectorum, pre-emergence, Preemergence, scale 0 to 100 (0 no effect, 100 complete control), read-out: Plant response rating, Bromegrass, Downy): 55% | pest or weed control at 62 g/ha ([2]; Bromus tectorum, pre-emergence, Preemergence, 0 to 100 scale, 0 no effect, read-out: Plant response rating, Bromegrass, Downy): 80% | Bromegrass, Downy plant response rating [2, 11]: 0 | Bromegrass, Downy plant response rating [2, 12]: 0 | Morningglory plant response rating [3, 13]: 0 | Morningglory plant response rating [3, 14]: 0 | pest or weed control at 31 g/ha [3, 7]: 0% | pest or weed control at 62 g/ha [3, 8]: 0% | pest or weed control at 31 g/ha [3, 9]: 0% | pest or weed control at 62 g/ha [3, 10]: 0% | Morningglory plant response rating [3, 11]: 0 | Morningglory plant response rating [3, 12]: 0 | Foxtail, Green plant response rating [4, 13]: 75 | Foxtail, Green plant response rating [4, 11]: 30 | Foxtail, Green plant response rating [4, 12]: 60 | pest or weed control at 16 g/ha ([4]; Setaria viridis, post-emergence, Postemergence, 16 g ai/ha, scale 0 to 100, read-out: Plant response rating, Foxtail, Green): 85% | pest or weed control at 31 g/ha ([4]; Setaria viridis, post-emergence, Postemergence, scale 0 to 100, read-out: Plant response rating, Foxtail, Green): 98% | pest or weed control at 62 g/ha ([4]; Setaria viridis, post-emergence, Postemergence, scale 0 to 100, 0 no effect, read-out: Plant response rating, Foxtail, Green): 98% | pest or weed control at 31 g/ha ([4]; Setaria viridis, pre-emergence, Preemergence, scale 0 to 100 (0 no effect, 100 complete control), read-out: Plant response rating, Foxtail, Green): 98% | pest or weed control at 62 g/ha ([4]; Setaria viridis, pre-emergence, Preemergence, 0 to 100 scale, 0 no effect, read-out: Plant response rating, Foxtail, Green): 100% | Corn plant response rating (corn (Zea mays); [13]): 0 | Corn plant response rating (corn (Zea mays); [11]): 0 | Corn plant response rating (corn (Zea mays); [12]): 0 | Corn plant response rating (crop injury, 0 = no effect, 100 = complete kill) at 16 g/ha (corn (Zea mays); Zea mays, post-emergence, Postemergence, 16 g ai/ha, scale 0 to 100): 0% | Corn plant response rating (crop injury, 0 = no effect, 100 = complete kill) at 31 g/ha (corn (Zea mays); Zea mays, post-emergence, Postemergence, scale 0 to 100): 20% | Corn plant response rating (crop injury, 0 = no effect, 100 = complete kill) at 62 g/ha (corn (Zea mays); Zea mays, post-emergence, Postemergence, scale 0 to 100, 0 no effect): 35% | Corn plant response rating (crop injury, 0 = no effect, 100 = complete kill) at 31 g/ha (corn (Zea mays); Zea mays, pre-emergence, Preemergence, scale 0 to 100 (0 no effect, 100 complete control)): 50% | Corn plant response rating (crop injury, 0 = no effect, 100 = complete kill) at 62 g/ha (corn (Zea mays); Zea mays, pre-emergence, Preemergence, 0 to 100 scale, 0 no effect): 100% | Foxtail, Giant plant response rating [5, 13]: 75 | Foxtail, Giant plant response rating [5, 11]: 55 | Foxtail, Giant plant response rating [5, 12]: 100 | pest or weed control at 16 g/ha ([5]; Setaria faberi, post-emergence, Postemergence, 16 g ai/ha, scale 0 to 100, read-out: Plant response rating, Foxtail, Giant): 80% | pest or weed control at 31 g/ha ([5]; Setaria faberi, post-emergence, Postemergence, scale 0 to 100, read-out: Plant response rating, Foxtail, Giant): 85% | pest or weed control at 62 g/ha ([5]; Setaria faberi, post-emergence, Postemergence, scale 0 to 100, 0 no effect, read-out: Plant response rating, Foxtail, Giant): 90% | pest or weed control at 31 g/ha ([5]; Setaria faberi, pre-emergence, Preemergence, scale 0 to 100 (0 no effect, 100 complete control), read-out: Plant response rating, Foxtail, Giant): 100% | pest or weed control at 62 g/ha ([5]; Setaria faberi, pre-emergence, Preemergence, 0 to 100 scale, 0 no effect, read-out: Plant response rating, Foxtail, Giant): 100% | Surinam Grass plant response rating [6, 13]: 65 | Surinam Grass plant response rating [6, 14]: 70 | Surinam Grass plant response rating [6, 11]: 75 | Surinam Grass plant response rating [6, 12]: 85 | pest or weed control at 31 g/ha [6, 7]: 75% | pest or weed control at 62 g/ha [6, 8]: 85% | pest or weed control at 31 g/ha [6, 9]: 100% | pest or weed control at 62 g/ha [6, 10]: 100%
